Literature values as cited in US11103580B2, “Methods and systems for treating cell proliferation disorders” (Immunolight, LLC, priority 2007, dated 2021).
Like-named read-outs stand apart in the source and are kept apart here.

Key:
rapidly dividing tissue = settings: in vivo
leukocytes = settings: administered orally to a patient
[1] = in excess
[2] = for Length of photosensitization: Table 3, known photosensitizers
tumors = settings: in vivo

Compound: Cobalt-57-cyanocobalamin
- uptake in rapidly dividing tissue (rapidly dividing tissue): increased uptake

Compound: COc1c2occc2cc2ccc(=O)oc12 [Compound 8-MOP, 8-methoxypsoralen]
- inducing an apoptosis of leukocytes (leukocytes): effective at inducing an apoptosis of leukocytes
- safety (leukocytes): safe

Compound: Vitamin B12
- excretion [1]: excreted by gloinerular filtration
- water solubility: water soluble

Compound: Oc1cccc(-c2c3nc(c(-c4cccc(O)c4)c4ccc([nH]4)c(-c4cccc(O)c4)c4nc(c(-c5cccc(O)c5)c5ccc2[nH]5)CC4)C=C3)c1 [Foscan, Tetra (m-hydroxyphenyl) chlorin]
- Length of photosensitization [2]: 2 weeks
- duration of skin photosensitivity ([2]; approximately): approximately 2 weeks

Compound: C/C1=C2/[N-][C@H]([C@H](CC(N)=O)[C@@]2(C)CCC(=O)NC[C@@H](C)OP(=O)([O-])O[C@H]2[C@@H](O)[C@@H](n3cnc4cc(C)c(C)cc43)O[C@@H]2CO)[C@]2(C)N=C(/C(C)=C3N=C(/C=C4N=C1[C@@H](CCC(N)=O)C\4(C)C)[C@@H](CCC(N)=O)[C@]\3(C)CC(N)=O)[C@@H](CCC(N)=O)[C@]2(C)CC(N)=O.[CH3-].[Co+3] [methylcobalamin]
- uptake in rapidly dividing tissue (rapidly dividing tissue): increased uptake

Compound: CC(=O)[O-].CC(=O)[O-].CCc1c(CC)c2cc3nc(cnc4cc(OCCOCCOCCOC)c(OCCOCCOCCOC)cc4ncc4nc(cc1[n-]2)C(CCCO)=C4C)C(C)=C3CCCO.O.[Lu+3] [Lutetium texaphryin, Motexafin lutetium]
- Length of photosensitization [2]: 24 to 48 h
- duration of skin photosensitivity ([2]; clinical use): 24 to 48 h
- selectivity for tumors compared to normal tissues (tumors): one of the greatest reported selectivities for tumors
